According to ChEMBL document CHEMBL1201862, “PubChem BioAssay data set” (2004):
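Each compound was tested at five concentrations against cells in 96-well plates for 48 hours. GI50 marks 50% less growth.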 Calls of active or inactive are those of the source. Cut-off read from the data, not from the text of the source: active = GI50 up to about 1.1 µM and inactive = higher.

Tests used:
Experiment in all cases: NCI-60 cell line screen, 48 h
786-0 = test system: 786-0
A498 = test system: A498
ACHN = test system: ACHN
DU-145 = test system: DU-145
K562 = test system: K562
LOX IMVI = test system: LOX IMVI
M14 = test system: M14
MDA-MB-231 = test system: MDA-MB-231
MDA-N = test system: MDA-N
NCI-H226 = test system: NCI-H226
NCI-H23 = test system: NCI-H23
NCI-H460 = test system: NCI-H460
OVCAR-5 = test system: OVCAR-5
PC-3 = test system: PC-3
SF-295 = test system: SF-295
SN12C = test system: SN12C
SNB-75 = test system: SNB-75
SR = test system: SR
TK-10 = test system: TK-10
UO-31 = test system: UO-31

Structure (SMILES)	GI50 (786-0)	GI50 (A498)	GI50 (ACHN)	GI50 (DU-145)	GI50 (K562)	GI50 (LOX IMVI)	GI50 (M14)	GI50 (MDA-MB-231)	GI50 (MDA-N)	GI50 (NCI-H226)	GI50 (NCI-H23)	GI50 (NCI-H460)	GI50 (OVCAR-5)	GI50 (PC-3)	GI50 (SF-295)	GI50 (SN12C)	GI50 (SNB-75)	GI50 (SR)	GI50 (TK-10)	GI50 (UO-31)
c1cc(CSSCc2ccncc2)ccn1	10.4 µM (inactive)	42.7 µM (inactive)	42.2 µM (inactive)	28.9 µM (inactive)	14.8 µM (inactive)	10.6 µM (inactive)	11.3 µM (inactive)	25.9 µM (inactive)	12.9 µM (inactive)	30.6 µM (inactive)	22 µM (inactive)	23.7 µM (inactive)	55.5 µM (inactive)	21.7 µM (inactive)	37.6 µM (inactive)	25.2 µM (inactive)	57.1 µM (inactive)	3.44 µM (inactive)	13.8 µM (inactive)	8.99 µM (inactive)
O=C(c1ccc(Cl)cc1)c1cnc(Nc2ccccc2Cl)s1	17.5 µM (inactive)	3.91 µM (inactive)	18.9 µM (inactive)	20.3 µM (inactive)	> 100 µM (inactive)	36 µM (inactive)	19.7 µM (inactive)	41.4 µM (inactive)	21.8 µM (inactive)	25.8 µM (inactive)	22 µM (inactive)	25.3 µM (inactive)	29.8 µM (inactive)	24.4 µM (inactive)	21.5 µM (inactive)	22.3 µM (inactive)	19.6 µM (inactive)	> 100 µM (inactive)	18.5 µM (inactive)	21.6 µM (inactive)
O=C(O)CCCSc1nc2ccccc2s1	> 100 µM (inactive)	> 100 µM (inactive)	> 100 µM (inactive)	> 100 µM (inactive)	> 100 µM (inactive)	> 100 µM (inactive)	> 100 µM (inactive)	> 100 µM (inactive)	> 100 µM (inactive)	> 100 µM (inactive)	> 100 µM (inactive)	> 100 µM (inactive)	> 100 µM (inactive)	> 100 µM (inactive)	> 100 µM (inactive)	> 100 µM (inactive)	> 100 µM (inactive)	> 100 µM (inactive)	> 100 µM (inactive)	> 100 µM (inactive)
CCCCCC(=O)Nc1[nH]nnc1C(N)=O	> 100 µM (inactive)	> 100 µM (inactive)	> 100 µM (inactive)	> 100 µM (inactive)	> 100 µM (inactive)	> 100 µM (inactive)	> 100 µM (inactive)	> 100 µM (inactive)	> 100 µM (inactive)	> 100 µM (inactive)	> 100 µM (inactive)	> 100 µM (inactive)	> 100 µM (inactive)	> 100 µM (inactive)	> 100 µM (inactive)	> 100 µM (inactive)	> 100 µM (inactive)	> 100 µM (inactive)	> 100 µM (inactive)	> 100 µM (inactive)
CC1(c2cccc(C(F)(F)F)c2)CC(c2cccc(C(F)(F)F)c2)=C(C#N)C(=C(C#N)C#N)N1 (stereo not given)	17 µM (inactive)	18.1 µM (inactive)	17.2 µM (inactive)	17.2 µM (inactive)	15.2 µM (inactive)	17.7 µM (inactive)	20.2 µM (inactive)	23 µM (inactive)	18 µM (inactive)	18.2 µM (inactive)	19.3 µM (inactive)	19.3 µM (inactive)	18.2 µM (inactive)	19.4 µM (inactive)	16.6 µM (inactive)	18.1 µM (inactive)	19.3 µM (inactive)	12.6 µM (inactive)	16.8 µM (inactive)	18.6 µM (inactive)
CC(=O)c1cccc2c1CC1(C2)Cc2ccc3c(c2C1=O)CCC3 (stereo not given)	41.2 µM (inactive)	> 100 µM (inactive)	47.9 µM (inactive)	79.1 µM (inactive)	21.6 µM (inactive)	27.5 µM (inactive)	46.7 µM (inactive)	32.6 µM (inactive)	49.1 µM (inactive)	23.9 µM (inactive)	67.8 µM (inactive)	33.3 µM (inactive)	53.6 µM (inactive)	32.5 µM (inactive)	43.2 µM (inactive)	35.8 µM (inactive)	35.9 µM (inactive)	14.8 µM (inactive)	24.2 µM (inactive)	30.3 µM (inactive)
O=[N+]([O-])c1cccc2nc3ccccc3c(NCCC[N+]3([O-])CCOCC3)c12	0.116 µM (active)	0.164 µM (active)	0.65 µM (active)	0.206 µM (active)	0.223 µM (active)	0.281 µM (active)	0.238 µM (active)	0.247 µM (active)	0.13 µM (active)	0.186 µM (active)	0.0791 µM (active)	0.0942 µM (active)	0.327 µM (active)	0.177 µM (active)	0.275 µM (active)	0.171 µM (active)	0.195 µM (active)	0.026 µM (active)	0.697 µM (active)	1.67 µM (inactive)
COc1ccc(CC2Cc3ccccc3CC(=O)N2)cc1OC (stereo not given)	> 100 µM (inactive)	> 100 µM (inactive)	> 100 µM (inactive)	> 100 µM (inactive)	44.9 µM (inactive)	32.8 µM (inactive)	54 µM (inactive)	> 100 µM (inactive)	52.5 µM (inactive)	43.6 µM (inactive)	87.7 µM (inactive)	42.8 µM (inactive)	> 100 µM (inactive)	40.3 µM (inactive)	86.7 µM (inactive)	> 100 µM (inactive)	48.2 µM (inactive)	67.9 µM (inactive)	> 100 µM (inactive)	> 100 µM (inactive)
CCCCCC(/C=C/C1CCC(=O)C1)OCOCCOC (stereo not given)	19.3 µM (inactive)	48.2 µM (inactive)	22.3 µM (inactive)	> 100 µM (inactive)	25.8 µM (inactive)	24.3 µM (inactive)	34 µM (inactive)	69.8 µM (inactive)	40.2 µM (inactive)	29.1 µM (inactive)	55.2 µM (inactive)	67.9 µM (inactive)	> 100 µM (inactive)	42.1 µM (inactive)	> 58.7 µM (inactive)	57.5 µM (inactive)	11.5 µM (inactive)	> 46.3 µM (inactive)	37.2 µM (inactive)	17.9 µM (inactive)
COCn1c2ccc(OC(C)=O)cc2c2c(=O)oc(C)nc21	> 100 µM (inactive)	50.4 µM (inactive)	> 100 µM (inactive)	> 100 µM (inactive)	> 100 µM (inactive)	> 100 µM (inactive)	> 100 µM (inactive)	> 100 µM (inactive)	> 100 µM (inactive)	> 100 µM (inactive)	> 100 µM (inactive)	> 100 µM (inactive)	> 100 µM (inactive)	> 100 µM (inactive)	> 100 µM (inactive)	> 100 µM (inactive)	> 100 µM (inactive)	> 100 µM (inactive)	> 100 µM (inactive)	> 100 µM (inactive)
O=CN1CCN(C(=O)c2ccco2)C1=S	3.13 µM (inactive)	16.5 µM (inactive)	10 µM (inactive)	3.08 µM (inactive)	3.25 µM (inactive)	3.72 µM (inactive)	8.85 µM (inactive)	17.3 µM (inactive)	7.62 µM (inactive)	22.9 µM (inactive)	15.6 µM (inactive)	12.4 µM (inactive)	19.4 µM (inactive)	7.29 µM (inactive)	22.5 µM (inactive)	4.01 µM (inactive)	12.5 µM (inactive)	2.11 µM (inactive)	14.3 µM (inactive)	4.49 µM (inactive)
